# Assay results as given in patent US7704969B2, “Transfection complexes” (ICH Productions Limited, priority 2001, dated 2010).
# Entries after “also recorded” stand apart in the source; their conditions may differ. Bridge positions count the residues as written; N and C are the ends. Ends that are not written are not given here.
# What was measured:
# 3T3 cells = assay: Luciferase reporter gene transfection of 3T3 cells; assay type: cell-based, mouse; conditions: FIG. 8, best peptide:DNA charge ratio, expression after 24 hours
# HAE cells [1] = assay: Whole cell ELISA of phage binding to HAE cells; design: species or system human; conditions: phage sequences of Table 1a compared and ranked using a range of phage titres
# Experimental: Following incubation of the phage with the HAE cells, the cells are washed and retained phage may then be detected by immunostaining. Cell specificity is assessed by comparing phage binding to target cells with phage binding to the wells on which the cells were plated and with phage binding to NIH 3T3 fibroblast control cells.
# Binding of phage to tissue cultured HAE cells was investigated by whole cell ELISA. Approx. 8×10^4 HAE cells in […] Hanks Balanced Salts Solution (HBSS) were added to each well of a 96 well plate and incubated at 37° C. until cells had adhered. The cells were washed gently in HBSS before blocking by the addition of 0.5% BSA in HBSS for 30 mins. […] Bound phage were detected by the addition of horseradish peroxidase (HRP)-conjugated anti-M13 antibody diluted 1:5000 in blocking buffer for 1 hour, before washing three times in PBS and developing the ELISA with 2,2′-azino-bis(3-ethylbenzthiazoline 6-sulfonic acid) (ABTS) substrate solution and reading the absorbance on a plate-reading spectrophotometer at 405 nm. […]
# Approx. […] Bound phage were detected by the addition of HRP-conjugated anti-M13 antibody diluted 1:5000 in blocking buffer for 1 hour, before washing three times in PBS, developing the ELISA with ABTS solution, and reading the absorbance at 405 nm.
# HAE cells [2] = assay: Luciferase reporter gene transfection of HAE cells with lipid/peptide/DNA vector complexes; assay type: cell-based, human
# Text: Transfection complexes were made by mixing the components in the order 1) lipid, then 2) peptide and, finally 3) DNA, followed by dilution. The vector complex suspension was applied to HAE cells and control cells. Vector complexes incorporating peptide Q ([K]16-GACLQHKSMPCG [SEQ. ID. NO.:12]) and vector complexes incorporating peptide P ([K]16-GACLPHKSMPCG [SEQ. ID. NO.:13]) were synthesised and compared with vector complexes incorporating peptide S ([K]16-GACYKHPGFLCG] [SEQ. ID. NO.:14]) which is a control peptide having the same amino acid constituents as peptide P but in a randomised order (the “scrambled control”), Peptide 12 ([K]16—XSXGACRRETAWACG [SEQ. ID. NO.:15]), a targeting peptide known to bind to alpha 5 beta 1 integrins and Peptide K ([K]16) a DNA binding moiety with no targeting ligand attached.
# Transfections of HAE cells and 3T3 cells were performed in 96 well plates containing 20,000 cells plated 24 hours earlier. In the transfection vector complex, peptide to DNA charge ratios (+/−) were used at 1.5:1, 3:1 and 7:1. At physiological pH, DNA carries negative charge and the polycationic-nucleic acid binding component carries positive charge. The “charge ratio” is accordingly the ratio of the charges of the two components in the complex. The lipid component was maintained at a constant proportion, by weight, relative to DNA of 0.75:1.
# Control peptide (S), consisted of the same amino acid constituents as the targeting peptide P but in a randomised order, was synthesised for incorporation into lipopolyplex formulations. Transfections of HAE and 3T3 cells were performed in 96 well plated containing 20,000 cells plated 24 h earlier. In the transfection complex, peptide to DNA charge ratios (+/−) were used at 1.5:1, 3:1 and 7:1. The lipid component was maintained at a constant proportion, by weight, relative to DNA of 0.75:1. Prior to making transfection complexes the lipid component was diluted to a concentration of 15 μg per ml, the peptide was prepared at 0.1 mg/ml and the DNA was at 20 μg per ml. All dilutions were performed with OptiMEM reduced serum tissue culture medium (Life Technologies). Transfection complexes were made by mixing of components in the order 1) lipid then 2) peptide and finally 3) DNA, then diluted with OptiMEM to a concentration relative to the DNA component of 0.25 μg DNA per 200 μl which volume was added to each well. Each group was performed in replicates of six. The vector complex suspension was then applied to cells within 5 minutes of preparation. Transfection incubations were performed at 37° C. for 4 h. Luciferase reporter gene assays in cell free extracts were performed after 48 h incubation using a kit from Promega according to the manufacturer's protocol. […]
substance,measurement,setting,value
[K]16-GACSERSMNFCG (KKKKKKKKKKKKKKKKGACSERSMNFCG; disulfide 19-27 (inferred)),transfection efficiency relative to peptide 6,3T3 cells,approximately 1.5 times
"LPHKSMP (not fully specified (N-terminus, C-terminus)) [basis of peptide P]",binding affinity to HAE cells (binding strength by ELISA),HAE cells [1],highest binding affinity
[K]16-GACLQHKSMPCG [peptide Q],transfection efficiency relative to peptide 6,3T3 cells,approximately 1.5 times
[K]16-GACLPHKSMPCG (KKKKKKKKKKKKKKKKGACLPHKSMPCG; disulfide 19-27 (inferred)) [peptide P],transfection efficiency relative to peptide 12 (next best peptide),"HAE cells [2]; peptide P at 7:1 charge ratio vs peptide 12 at 3:1 charge ratio, luciferase",five-fold higher
same,transfection performance relative to peptide Q,"HAE cells [2]; transfection assay, FIG. 3",significantly better
same,"transfection efficiency relative to peptide K (K16, no targeting ligand)","HAE cells [2]; vector complexes, luciferase",almost nine-fold higher; also recorded: almost nine-fold more efficient
"[K]16-GACYKHPGFLCG (KKKKKKKKKKKKKKKKGACYKHPGFLCG; N-terminal K16 oligolysine; Targeting peptide, see description) [peptide S, reference compound]",transfection performance of peptide S relative to peptide K16,HAE cells [2]; in transfection complexes,less than a tenth as good
